In US20090076075A1, “QUINOLINE DERIVATIVES” (priority 2006, published 2009):

Legend:
PDGFRβ = target: T1, PDGFRβ (Homo sapiens, UniProt P09619); assay: In vitro phospho-Tyr751 PDGFRβ ELISA assay (Test (b)); type: cell-based; details: MG63 osteosarcoma cells stimulated with PDGFBB, read-out: IC50 versus phospho-Tyr751 formation in PDGFRβ
T1 construct: endogenous in cells; host or cells: MG63 osteosarcoma cells (ATCC)
Description: This assay uses a conventional ELISA method to determine the ability of test compounds to inhibit phosphorylation of tyrosine in PDGFRβ.
Aliquots (100 μl) of culture media were placed in the outer wells to minimise edge effects. The cells were incubated overnight at 37° C. with 7.5% CO2 to allow the cells to adhere to the wells.
Aliquots (3 μl) of each compound concentration were added to test medium (300 μl) to create a second dilution range. Aliquots (16 μl) of each resultant compound concentration were added to the cells in each well. “Maximum” control cells received a dilution of DMSO plus test medium only. “Minimum” control cells received a reference PDGFR inhibitor (16 μl). The cells were incubated for 90 minutes at 37° C. with 7.5% CO2.
The resultant cells were stimulated with PDGFBB using the following procedure. A lyophilised powder of PDGFBB, (Sigma-Aldrich; Catalogue No. P4306) was mixed with sterile water to provide a stock solution of 10 μg/ml of PDGFBB. […] Aliquots thereof (44 μl) were added to compound treated cells and to the “Maximum” control cells. The “Minimum” control cells received medium only. The cells were incubated at 37° C. with 7.5% CO2 for 5 minutes. […] The resultant tissue culture plates were shaken for 5 minutes at ambient temperature to ensure full lysis and then frozen at −20° C. until required.
Aliquots (50 μl) were added to each well and the plates were placed at 4° C. for 16 hours. The wells were washed 5 times (1 minute soak each time) with 300 μl per well of PBST. The wells were treated with 50 μl of 3% BSA in PBST at ambient temperature for 1 hour and subsequently washed twice with 300 μl per well of PBST.
The tissue culture plates with frozen cell lysate were allowed to warm to 0° C.

KDR (VEGFR2) = target: T2, KDR (VEGFR2) (Homo sapiens, UniProt P35968); assay: In vitro phospho-KDR ELISA assay (Test (c)); type: cell-based; details: HUVECs stimulated with VEGF, read-out: IC50 versus phospho-tyrosine formation in KDR
T2 construct: phosphorylation of KDR expressed in human umbilical vein endothelial cells (HUVECs); host or cells: HUVEC
T2 sequence (P35968 20-1356): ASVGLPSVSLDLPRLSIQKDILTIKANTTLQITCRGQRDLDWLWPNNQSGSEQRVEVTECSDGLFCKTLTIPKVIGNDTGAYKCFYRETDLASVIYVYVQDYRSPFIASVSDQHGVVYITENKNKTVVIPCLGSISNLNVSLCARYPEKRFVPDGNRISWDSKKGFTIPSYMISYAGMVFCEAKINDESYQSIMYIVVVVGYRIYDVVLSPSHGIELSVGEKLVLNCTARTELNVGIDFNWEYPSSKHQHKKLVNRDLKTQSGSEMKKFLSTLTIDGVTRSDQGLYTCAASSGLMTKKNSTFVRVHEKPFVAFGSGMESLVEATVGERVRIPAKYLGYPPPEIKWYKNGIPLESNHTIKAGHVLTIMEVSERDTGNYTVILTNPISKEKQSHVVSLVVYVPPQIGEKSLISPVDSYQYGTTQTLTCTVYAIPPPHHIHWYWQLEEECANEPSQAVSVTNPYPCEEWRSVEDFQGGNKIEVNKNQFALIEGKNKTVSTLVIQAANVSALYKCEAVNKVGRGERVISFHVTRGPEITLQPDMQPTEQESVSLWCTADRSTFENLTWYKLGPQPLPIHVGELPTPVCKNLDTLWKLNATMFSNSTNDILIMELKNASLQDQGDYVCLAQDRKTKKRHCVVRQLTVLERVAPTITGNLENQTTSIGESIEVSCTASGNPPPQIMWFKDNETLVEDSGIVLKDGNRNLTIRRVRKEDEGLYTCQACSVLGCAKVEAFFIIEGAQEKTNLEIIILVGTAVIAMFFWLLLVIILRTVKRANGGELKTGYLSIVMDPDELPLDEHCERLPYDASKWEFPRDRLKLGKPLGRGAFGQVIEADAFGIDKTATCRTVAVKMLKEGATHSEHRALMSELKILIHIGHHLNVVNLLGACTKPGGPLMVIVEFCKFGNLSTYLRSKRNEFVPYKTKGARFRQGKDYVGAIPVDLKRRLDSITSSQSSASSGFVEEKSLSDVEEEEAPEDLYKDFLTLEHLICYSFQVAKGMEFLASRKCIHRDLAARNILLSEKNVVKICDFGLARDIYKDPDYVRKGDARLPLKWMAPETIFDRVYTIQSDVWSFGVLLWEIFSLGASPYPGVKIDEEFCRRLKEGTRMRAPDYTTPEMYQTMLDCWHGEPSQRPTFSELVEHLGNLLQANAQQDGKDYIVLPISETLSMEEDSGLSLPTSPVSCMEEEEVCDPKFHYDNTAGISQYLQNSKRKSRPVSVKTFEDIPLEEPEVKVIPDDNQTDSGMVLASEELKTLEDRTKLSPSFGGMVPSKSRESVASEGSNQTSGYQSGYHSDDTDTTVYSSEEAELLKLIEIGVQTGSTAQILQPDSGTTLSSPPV
Description: (c) In Vitro Phospho-KDR ELISA Assay
This assay uses a conventional ELISA method to determine the ability of test compounds to inhibit phosphorylation of tyrosine in KDR (VEGFR2).
The cells were incubated overnight at 37° C. with 7.5% CO2 to allow adherence to the well surface. […] The plates were incubated at 37° C. for 2.5 hours.
Test compounds were prepared as 10 mM stock solutions in DMSO and serially diluted with DMSO as required. […] Aliquots (50 μl) of each resultant compound concentration were added to the cells in each well. […] The cells were incubated for 90 minutes at 37° C. with 7.5% CO2.
The resultant cells were stimulated with VEGF using the following procedure. […] A dilution of this stock solution into ‘serum free medium’ provided a 1000 ng/ml VEGF solution. Aliquots thereof (50 μl) were added to all wells. The cells were incubated at 37° C. with 7.5% CO2 for 5 minutes. […] The resultant tissue culture plates were shaken for 5 minutes at ambient temperature to ensure full lysis before being frozen on dry-ice and stored at −20° C. until required.
The antibody was diluted in PBS to a concentration of 8 μg/ml, aliquots (100 μl) were added to each well and the plates were stored at ambient temperature for 16 hours. The wells were washed 3 times (1 minute soak each time) with 300 μl per well of PBST. The wells were treated with PBS containing 1% filter-sterilised BSA (1% BSA/PBS; 200 μl) at ambient temperature for 1 hour and subsequently washed 3 times with 300 μl per well of PBST.
The tissue culture plates with frozen cell lysate were allowed to warm to 0° C. Aliquots (100 μl) of the HUVEC cell lysate were added and the ELISA plates were agitated at ambient temperature for 3 hours. The wells were washed 3 times with 300 μl per well of PBST.

T1 sequence (P09619 33-1106): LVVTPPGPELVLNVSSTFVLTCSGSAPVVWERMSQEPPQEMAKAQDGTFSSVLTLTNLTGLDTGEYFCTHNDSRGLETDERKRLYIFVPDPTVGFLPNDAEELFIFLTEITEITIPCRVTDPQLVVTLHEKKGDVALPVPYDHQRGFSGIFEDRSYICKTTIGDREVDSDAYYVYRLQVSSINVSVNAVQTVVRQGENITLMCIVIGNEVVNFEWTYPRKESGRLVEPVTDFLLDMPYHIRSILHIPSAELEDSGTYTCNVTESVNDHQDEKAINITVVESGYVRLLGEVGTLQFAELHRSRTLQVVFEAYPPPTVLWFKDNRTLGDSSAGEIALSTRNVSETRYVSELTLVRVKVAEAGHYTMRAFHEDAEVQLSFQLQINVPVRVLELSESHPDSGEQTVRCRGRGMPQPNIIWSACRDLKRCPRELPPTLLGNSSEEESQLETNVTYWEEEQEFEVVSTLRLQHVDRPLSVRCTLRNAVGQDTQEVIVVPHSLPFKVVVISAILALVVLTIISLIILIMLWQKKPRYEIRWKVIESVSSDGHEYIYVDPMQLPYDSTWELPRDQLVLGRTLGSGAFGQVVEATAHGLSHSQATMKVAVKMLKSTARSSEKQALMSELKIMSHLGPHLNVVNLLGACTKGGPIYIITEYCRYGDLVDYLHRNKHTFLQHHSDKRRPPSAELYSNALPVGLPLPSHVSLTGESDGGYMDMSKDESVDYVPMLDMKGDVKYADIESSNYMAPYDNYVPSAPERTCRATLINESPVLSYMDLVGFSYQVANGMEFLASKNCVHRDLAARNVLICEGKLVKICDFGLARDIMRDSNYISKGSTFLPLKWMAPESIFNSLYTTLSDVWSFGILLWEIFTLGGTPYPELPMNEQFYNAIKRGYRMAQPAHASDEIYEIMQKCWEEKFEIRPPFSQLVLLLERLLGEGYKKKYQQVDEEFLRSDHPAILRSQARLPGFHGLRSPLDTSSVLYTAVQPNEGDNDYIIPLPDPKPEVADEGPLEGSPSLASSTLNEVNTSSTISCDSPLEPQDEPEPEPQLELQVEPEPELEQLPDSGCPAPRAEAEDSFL

Q: Which IC50 (PDGFRβ) does the source give for `CCc1cc(NC(=O)Cc2ccc(Oc3ccnc4cc(OC)c(C#N)cc34)cn2)n[nH]1` [Example 3, N-(5-ethylpyrazol-3-yl)-2-[5-(6-cyano-7-methoxyquinolin-4-yloxy)pyridin-2-yl]acetamide] here?
A: ~30 nM

Q: For `COc1ccc2c(Oc3cnc(CC(=O)Nc4noc(C)c4C)c(OC)c3)ccnc2c1` [N-(4,5-dimethylisoxazol-3-yl)-2-[3-methoxy-5-(7-methoxyquinolin-4-yloxy)pyridin-2-yl]acetamide], which IC50 (PDGFRβ) is on record?
A: ~5 nM

Q: And the IC50 (KDR (VEGFR2))?
A: > 2000 nM

Q: What does the source list for `COc1cc2nccc(Oc3cnc(CC(=O)Nc4n[nH]c(C)c4C)c(OC)c3)c2cc1OC` [N-(4,5-dimethylpyrazol-3-yl)-2-[5-(6,7-dimethoxyquinolin-4-yloxy)-3-methoxypyridin-2-yl]acetamide]?
A: IC50 (PDGFRβ): ~5 nM; IC50 (KDR (VEGFR2)): > 2000 nM

Q: What does the source list for `CCc1cc(NC(=O)Cc2ncc(Oc3ccnc4ccc(F)cc34)cc2OC)no1` [N-(5-ethylisoxazol-3-yl)-2-[5-(6-fluoroquinolin-4-yloxy)-3-methoxypyridin-2-yl]acetamide]?
A: IC50 (PDGFRβ): ~5 nM; IC50 (KDR (VEGFR2)): > 2000 nM
